From PubChem BioAssay AID2060340 (Molecular Pharmacology Branch, DTP, NCI, 2025)
Where “and” joins values, the source holds several entries; their conditions need not be identical. Identical values can stand only once.

System: 349418-098-R-PDC spheroids, viability, % test/control
Assay: Anticancer human tumor 349418-098-R-PDC patient-derived lung adenocarcinoma cell line growth inhibition [IpAb]
Conditions: spheroids with HUVEC and MSC; for viability, T/C: stronger effect = lower value
Description: Combinatorial screen of targeted agents with ipatasertib and abemaciclib in multi-cell type tumor spheroids
A high-throughput screen of multi-cell type tumor spheroids was designed to identify active combinations of targeted small molecules and ipatasertib or abemaciclib. Complex spheroids include a stromal component modeled by human endothelial cells (HUVEC) and fibroblasts modeled by human mesenchymal stem cells (MSCs). The concentration ranges selected for each drug and investigational agent were based upon clinically achievable concentrations if the clinical Cmax of the agent was known.
Compounds. The drugs and investigational agents: ipatasertib (NSC767898), abemaciclib(NSC768073), selumetinib (NSC741078), trametinib (758246), adavosertib (NSC754352), everolimus (NSC733504), sapanisertib (NSC764658), vemurafenib (NSC761431), venetoclax (NSC766270), copanlisib (NSC809693), apelisib (NSC765974), palbociblib (NSC758247), vemurafenib (NSC761431), dabrafenib (NSC764134), ravoxertinib (NSC781343), BMS-387032 (NSC767048), sotorasib (NSC818433), talazoparib (NSC767125) and afursertib (NSC778305), were obtained from the National Cancer Institute (NCI) Developmental Therapeutics Program Chemical Repository. The FDA-approved anticancer drug set is available from the NCI Developmental Therapeutics Program. […] The stock solutions were prepared in dimethyl sulfoxide (DMSO, Sigma-Aldrich, St. Louis, MO, cat. D2650) at 800-fold the tested concentration and stored at -70 degrees C prior to their use. All drugs and investigational agents were tested over a range starting from a high concentration at or near the clinical Cmax and decreasing in half-log increments. If the clinical Cmax for an agent had not been determined, the highest concentration tested was 10 microM.
NCI60 Cell Culture. NCI60 cell lines were obtained from the NCI Developmental Therapeutics Program Tumor Repository. For each lot of cells, the Repository performed Applied Biosystems AmpFLSTR Identifiler testing with PCR amplification to confirm consistency with the published Identifier STR profile for each cell line. Cells were kept in continuous culture for no more than 20 passages. The optimal seeding densities for each of the cell lines at each time point assessed were determined prior to performing the concentration response studies. Briefly, the NCI60 human tumor lines were grown as monolayers in RPMI 1640 medium supplemented with 10% FBS and 2 mmol/L L-glutamine.
An additional 9 lines were from the NCI60 cell line panel including MDA-MB-231 breast carcinoma, MDA-MB-468 breast carcinoma, MCF7 breast carcinoma, Hs578T breast carcinoma, MALME-3M melanoma, SK-MEL-2 melanoma, SK-OV-3 ovarian carcinoma, DU-145 prostate carcinoma, PC-3 prostate carcinoma, all cell lines along with major genetic alterations are listed on Table 2. Pooled donor human umbilical vein endothelial cells (HUVEC, Lonza, cat. CC-2519) and human mesenchymal stem cells (hMSC, Lonza, cat. PT-2501) were purchased from Lonza (Walkersville, MD).
PDMR cell lines were grown in complete medium (DC medium): Dulbecco's modified Eagle's medium (DMEM)/F12 supplemented with 5% fetal bovine serum (FBS), 2 mM L-glutamine, 100 U/mL penicillin and 100 µg/ml streptomycin, 0.4 µg/ml hydrocortisone, 10 ng/ml epidermal growth factor (EGF) recombinant human protein, 24 µg/mL adenine, and 0.1 mg/mL primocin. During culture from frozen stock vials, PDMR cells were cultured in the same medium containing 10 µM Y-27632 (see Table 3). The PDCs were cultured in complete DMEM/F12 media without 10 microM Y-27632 dihydrochloride for at least two passages prior to the screen. The pooled donor HUVEC and hMSC were cultured in endothelial cell growth medium 2 (PromoCell, Heidelberg, Germany, cat. C-22011) and mesenchymal stem cell growth medium 2 (PromoCell, cat. C-28009), respectively. For all experiments, HUVEC and hMSC were used at passages </=5.
[…]

[1] = curve of first compound, second compound 0.01 µM
[2] = curve of first compound, second compound 0.0316 µM
[3] = curve of first compound, second compound 0.1 µM
[4] = curve of first compound, second compound 0.316 µM
[5] = curve of first compound, second compound 1 µM
[6] = second compound 0.01 µM, first compound 0.0316 µM
[7] = second compound 0.01 µM, first compound 0.1 µM
[8] = second compound 0.01 µM, first compound 0.316 µM
[9] = second compound 0.01 µM, first compound 1 µM
[10] = second compound 0.01 µM, first compound 3.16 µM
[11] = second compound 0.01 µM, first compound 10 µM
[12] = second compound 0.0316 µM, first compound 0.0316 µM
[13] = second compound 0.0316 µM, first compound 0.1 µM
[14] = second compound 0.0316 µM, first compound 0.316 µM
[15] = second compound 0.0316 µM, first compound 1 µM
[16] = second compound 0.0316 µM, first compound 3.16 µM
[17] = second compound 0.0316 µM, first compound 10 µM
[18] = second compound 0.1 µM, first compound 0.0316 µM
[19] = second compound 0.1 µM, first compound 0.1 µM
[20] = second compound 0.1 µM, first compound 0.316 µM
[21] = second compound 0.1 µM, first compound 1 µM
[22] = second compound 0.1 µM, first compound 3.16 µM
[23] = second compound 0.1 µM, first compound 10 µM
[24] = second compound 0.316 µM, first compound 0.0316 µM
[25] = second compound 0.316 µM, first compound 0.1 µM
[26] = second compound 0.316 µM, first compound 0.316 µM
[27] = second compound 0.316 µM, first compound 1 µM
[28] = second compound 0.316 µM, first compound 3.16 µM
[29] = second compound 0.316 µM, first compound 10 µM
[30] = second compound 1 µM, first compound 0.0316 µM
[31] = second compound 1 µM, first compound 0.1 µM
[32] = second compound 1 µM, first compound 0.316 µM
[33] = second compound 1 µM, first compound 1 µM
[34] = second compound 1 µM, first compound 3.16 µM
[35] = second compound 1 µM, first compound 10 µM
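Note: spheroids exposed to compounds for 7 days.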

Cn1nccc1Nc1nccc(-c2ccn(C(CO)c3ccc(Cl)c(F)c3)c(=O)c2)n1 (configuration not stated)
viability, T/C (compound 0.0316 µM): 50.1% and 54.6% | viability, T/C (compound 0.1 µM): 42.6% and 45.7% | viability, T/C (compound 0.316 µM): 57.2% and 49.9% | viability, T/C (compound 1 µM): 44.4% and 49.7% | viability, T/C (compound 3.16 µM): 29% and 30.1% | viability, T/C (compound 10 µM): 19.7% and 21.3%

C=CC(=O)N1CCN(c2nc(=O)n(-c3c(C)ccnc3C(C)C)c3nc(-c4c(O)cccc4F)c(F)cc23)C(C)C1 (configuration not stated) + CCN1CCN(Cc2ccc(Nc3ncc(F)c(-c4cc(F)c5nc(C)n(C(C)C)c5c4)n3)nc2)CC1
IC50 [1]: 4630 nM | IC50 [2]: 124 nM | IC50 [3]: < 31.6 nM | IC50 [4]: < 31.6 nM | IC50 [5]: < 31.6 nM | viability, T/C [6]: 90.2% | viability, T/C [7]: 82.9% | viability, T/C [8]: 82.8% | viability, T/C [9]: 87.1% | viability, T/C [10]: 57.2% | viability, T/C [11]: 35.5% | viability, T/C [12]: 58.9% | viability, T/C [13]: 47.8% | viability, T/C [14]: 43.2% | viability, T/C [15]: 41.2% | viability, T/C [16]: 35.1% | viability, T/C [17]: 20.5% | viability, T/C [18]: 33.9% | viability, T/C [19]: 28.7% | viability, T/C [20]: 31.4% | viability, T/C [21]: 29.6% | viability, T/C [22]: 23.3% | viability, T/C [23]: 13.2% | viability, T/C [24]: 19.7% | viability, T/C [25]: 22% | viability, T/C [26]: 22.1% | viability, T/C [27]: 21.2% | viability, T/C [28]: 18.1% | viability, T/C [29]: 14.1% | viability, T/C [30]: 19.3% | viability, T/C [31]: 21.5% | viability, T/C [32]: 20.9% | viability, T/C [33]: 16% | viability, T/C [34]: 19.2% | viability, T/C [35]: 10.9%

Cc1nc(NC(=O)N2CCCC2C(N)=O)sc1-c1ccnc(C(C)(C)C(F)(F)F)c1 (configuration not stated) + CCN1CCN(Cc2ccc(Nc3ncc(F)c(-c4cc(F)c5nc(C)n(C(C)C)c5c4)n3)nc2)CC1
IC50 [1]: 47.5 nM | IC50 [2]: < 31.6 nM | IC50 [3]: < 31.6 nM | IC50 [4]: < 31.6 nM | IC50 [5]: < 31.6 nM | viability, T/C [6]: 59.8% | viability, T/C [7]: 32.7% | viability, T/C [8]: 17.9% | viability, T/C [9]: 14.1% | viability, T/C [10]: 10.2% | viability, T/C [11]: 8.7% | viability, T/C [12]: 40.5% | viability, T/C [13]: 27.1% | viability, T/C [14]: 12.1% | viability, T/C [15]: 7.43% | viability, T/C [16]: 7.43% | viability, T/C [17]: 8.13% | viability, T/C [18]: 20.3% | viability, T/C [19]: 13.9% | viability, T/C [20]: 9.49% | viability, T/C [21]: 7.63% | viability, T/C [22]: 7.46% | viability, T/C [23]: 7.65% | viability, T/C [24]: 15.9% | viability, T/C [25]: 12.6% | viability, T/C [26]: 9.79% | viability, T/C [27]: 8.43% | viability, T/C [28]: 9% | viability, T/C [29]: 7.65% | viability, T/C [30]: 12.8% | viability, T/C [31]: 11.4% | viability, T/C [32]: 9.14% | viability, T/C [33]: 7.42% | viability, T/C [34]: 7.89% | viability, T/C [35]: 6.94%

CC(=O)c1c(C)c2cnc(Nc3ccc(N4CCNCC4)cn3)nc2n(C2CCCC2)c1=O
viability, T/C (compound 0.000949 µM): 97.3% and 86.4% | viability, T/C (compound 0.003 µM): 82.9% and 78.7% | viability, T/C (compound 0.00949 µM): 61.7% | viability, T/C (compound 0.03 µM): 30.8% and 42.2% | viability, T/C (compound 0.0949 µM): 24.5% and 21.1% | viability, T/C (compound 0.3 µM): 16.8% and 16.9% | IC50 (curve of compound): 14.4 nM and 18.2 nM

C=CC(=O)N1CCN(c2nc(=O)n(-c3c(C)ccnc3C(C)C)c3nc(-c4c(O)cccc4F)c(F)cc23)C(C)C1 (configuration not stated)
viability, T/C (compound 0.0316 µM): 109% and 107% | viability, T/C (compound 0.1 µM): 107% and 104% | viability, T/C (compound 0.316 µM): 105% and 94.1% | viability, T/C (compound 1 µM): 102% and 96.4% | viability, T/C (compound 3.16 µM): 72.9% and 76.2% | viability, T/C (compound 10 µM): 48.9% and 38% | IC50 (curve of compound): 9460 nM and 7010 nM

CC(C)(C)c1cnc(CSc2cnc(NC(=O)C3CCNCC3)s2)o1
viability, T/C (compound 0.00949 µM): 105% and 108% | viability, T/C (compound 0.03 µM): 90.5% and 85.3% | viability, T/C (compound 0.0949 µM): 2.46% and 15.2% | viability, T/C (compound 0.3 µM): 2.23% and 2.41% | viability, T/C (compound 0.949 µM): 3.07% and 3.11% | viability, T/C (compound 3 µM): 2.08% and 2.15% | IC50 (curve of compound): 50.9 nM and 53.6 nM
